Test results reported in ChEMBL document CHEMBL4177622, “Enhanced radical scavenging activity of a procyanidin B3 analogue comprised of a dimer of planar catechin” (Bioorg Med Chem Lett, 2017).

Assay: Antioxidant activity assessed as second order rate constant for galvinoxyl radical scavenging activity in presence of deaerated conditions by UV-Vis spectrophotometric analysis
Format: functional

`CC1(C)O[C@H]2Cc3c(O)cc(O)cc3O[C@@H]2c2cc(O)c(O)cc21` showed a K of 1.5 ×10² /mol/s.

`CC1(C)O[C@H]2[C@H](c3c(O)cc(O)c4c3O[C@@H]3c5cc(O)c(O)cc5C(C)(C)O[C@H]3C4)c3c(O)cc(O)cc3O[C@@H]2c2cc(O)c(O)cc21` gave a K of 2.85 ×10² /mol/s.

`Oc1cc(O)c2c(c1)O[C@H](c1ccc(O)c(O)c1)[C@@H](O)C2` gave a K of 2.6 ×10¹ /mol/s.

Work on `CC1(C)O[C@H]2Cc3c(O)cc(O)c([C@@H]4c5c(O)cc(O)cc5O[C@H](c5ccc(O)c(O)c5)[C@H]4O)c3O[C@@H]2c2cc(O)c(O)cc21` yielded a K of 1.89 ×10² /mol/s.

`Oc1cc(O)c2c(c1)O[C@H](c1ccc(O)c(O)c1)[C@@H](O)[C@@H]2c1c(O)cc(O)c2c1O[C@H](c1ccc(O)c(O)c1)[C@@H](O)C2` gave a K of 1 ×10² /mol/s.
